Results: US20090048221A1, “Conjugates with Anti-Inflammatory Activity” (priority 2004, published 2009)
Counter-ions that a name gives are not always drawn. Blank lines part the entries; values can stand above or below the compound they belong to.

How the values were obtained:
Male Balb/C mice = assay: Model of lung eosinophilia in mice (OVA sensitised and challenged)
Protocol: Male Balb/C mice with a body weight of 20-25 g were randomly divided into groups, and sensitised by an i.p. injection of ovalbumin (OVA, Sigma, St. Louis, Mo. USA) on day zero and day fourteen. On the twentieth day, the mice were subjected to a challenge test by i.n. (intranasal) application of OVA (positive control or test groups) or PBS (negative control). 48 hours after i.n. application of OVA, the animals were anaesthetized and the lungs were rinsed with 1 mL of PBS. The cells were separated on Cytospin 3 cytocentrifuge (Shandon). The cells were stained in Diff-Quick (Dade) and the percentage of eosinophils was determined by differential counting of at least 100 cells.
Beclomethasone (Pliva d.d.) were used as a standard substances, with positive and negative control. The compounds were administered daily i.n. or i.p. in different doses 2 days before the challenge test and up to the completion of the test.
Corticosterone levels were determined in plasma from each animal using a kit for determination of corticosterone (R&D systems).

Sprague-Dawley rats = assay: Subcutaneous sponge implantation model; details: seven days after implantation; for thymus weight: vs vehicle
Protocol: In this model, local inflammation was followed by determination of newly formed granulation tissue together with determination of compound effects on plasma corticosterone concentration and thymus weight in Sprague-Dawley rats. Sprague-Dawley rats were purchased from Iffa Credo, Lyon, France and 10 weeks old male rats were used. […] All substances were dissolved in ethanol, applied onto sterile sponges and allowed to dry in the laminar flow cabinet prior to the sponge implantation.
On day 0, animals were anaesthetized by inhalation of Isoflurane (Abbott Laboratories Ltd., USA) and 5% oxygen, delivered in an anesthesia induction chamber (Stoelting Co., USA). Gas scavenging was provided using the Fluovac 240V system (International Market Supply, England). Anesthesia was maintained using a gas anesthesia mask (Stoelting Co., USA) and pedal reflex response where checked at intervals. The implantation area was shaved and subsequently disinfected using Pursept solution (MERZ Hygiene, Germany). Using strict aseptic procedure, two 1 cm long skin incisions were made just below the left and right regio scapularis. Small subcutaneous pockets were made on the left side of the left wound and the right side of the right wound using blunt forceps. In all animals, sponges with vehicle or dissolved substance applied were inserted on the left side and non-treated ones on the right side. Skin was closed with sutures and disinfected with Pursept solution. On day 7 rats were anaesthetized by intraperitoneal administration of Thiopental (PLIVA; 0.5 mL/100g body weight) and exanguinated by puncturing A. carolis com.
Blood was collected into Vacutainer tubes (Becton Dickinson, USA) for plasma corticosterone concentration analysis. Corticosterone levels in plasma were measured using R&D Systems kit for quantitative determination of corticosterone. Competitive ELISA was performed with alkaline phosphatase conjugated corticosterone as competitor. Samples were incubated for 2 hours, and after successive washing, substrate was added. After 1 h absorbance was measured on 405 mm. OD values are inversely correlated with increasing corticosterone concentrations. Corticosterone concentrations were calculated using calibration curve generated with corticosterone standard concentration dilutions. For assessing the thymus weight, thymuses were extirpated and weighed using the analytical balance. The reduction of thymus size in treated animals was presented as a percentage of that in control rats (0%).
For assessing the newly formed granulation tissue, sponges were carefully excised and each sponge perforated with sterile surgical sewing suture to keep it on the top of the Falcon tube during centrifugation. Tubes were centrifuged (1000 rpm per 10 minutes). […]

[1] = tested on: Mouse T-cell hybridoma 13; assay: Inhibition of mouse T-cell hybridoma 13 proliferation as a result of apoptosis induction; format: cell-based; details: for IC50: Mus musculus, T-cell, [3H]thymidine incorporation, overnight incubation; for inhibition of T-cell hybridoma 13 proliferation: in the concentrations from 1 μM to 1 nM
Protocol: Triplicates of test steroid dilution in RPMI medium (Institute of Immunology, Zagreb) with 10% FBS were added to a 96 well plate. […] Then 1 μCi of [^3H]thymidine (Pharmacia, Piscataway, N.J. USA) was added and the mixture was incubated for an additional 3 hours. The cells were harvested by applying a vacuum over GF/C filter (Packard). Onto each well, 30 μl of Microscynt O scintillation liquid (Packard) was added and the incorporated radioactivity was measured on a β-scintillation counter (Packard).

[2] = tested on: interleukin 4, interleukin 5 and interferon γ production; assay: Inhibition of interleukin 4, interleukin 5 and interferon γ production by concanavalin-A induced murine splenocytes; format: cell-based, Balb/C mice; details: in concentrations from 1 μM to 1 nM; concanavalin-A stimulated splenocytes, 72 hours
From the text: Splenocytes were isolated from the spleen of Balb/C mice sacrificed by thiopental injection (Pliva, Zagreb, Croatia). Spleens were chopped and mononuclear cells separated on Histopaque 1083 (Sigma Diagnostics, St. Louis, Mo. USA Cat. No 1083-1). Into a 96-well plate, compounds diluted in RPMI medium (Institute of Immunology, Zagreb, Croatia) were pipetted with 10% foetal bovine serum (Biowhittaker) and cells (200000 per well) in the same medium, and concanavalin-A stimulator (Sigma 2002-2003 cat. No C5275) at a final concentration of […] were added. The positive control, in place of the dilution of compounds, consisted of RPMI medium with 10% foetal bovine serum and concanavalin-A in the same concentration of. Cells were incubated for 72 hours at 37° C., 95% humidity and in an atmosphere with 5% CO2. Until determination of cytokines, the cells were frozen at −70° C.
Cytokines interleukin 4, interleukin 5 and interferon γ were determined by the specific ELISA method, according to manufacturer's recommendations (R&D).
Inhibition (as percentage) was calculated using the following formula:
% inh=(1−[concentration of cytokines in sample]/[concentration of cytokines in positive control])*100

[3] = target: T1, human glucocorticoid receptor (Homo sapiens, UniProt P04150); assay: Assay of binding to human glucocorticoid receptor ([3H]dexamethasone displacement in transfected COS-1 cells); details: 24 nM [3H]dexamethasone, COS-1 cells transfected with human GR alpha
T1 construct: expressed in transfected cells; host or cells: COS-1 cells, transient transfection with pcDNA3.1 Hygro(+) carrying the cloned cDNA
T1 sequence (P04150 1-777): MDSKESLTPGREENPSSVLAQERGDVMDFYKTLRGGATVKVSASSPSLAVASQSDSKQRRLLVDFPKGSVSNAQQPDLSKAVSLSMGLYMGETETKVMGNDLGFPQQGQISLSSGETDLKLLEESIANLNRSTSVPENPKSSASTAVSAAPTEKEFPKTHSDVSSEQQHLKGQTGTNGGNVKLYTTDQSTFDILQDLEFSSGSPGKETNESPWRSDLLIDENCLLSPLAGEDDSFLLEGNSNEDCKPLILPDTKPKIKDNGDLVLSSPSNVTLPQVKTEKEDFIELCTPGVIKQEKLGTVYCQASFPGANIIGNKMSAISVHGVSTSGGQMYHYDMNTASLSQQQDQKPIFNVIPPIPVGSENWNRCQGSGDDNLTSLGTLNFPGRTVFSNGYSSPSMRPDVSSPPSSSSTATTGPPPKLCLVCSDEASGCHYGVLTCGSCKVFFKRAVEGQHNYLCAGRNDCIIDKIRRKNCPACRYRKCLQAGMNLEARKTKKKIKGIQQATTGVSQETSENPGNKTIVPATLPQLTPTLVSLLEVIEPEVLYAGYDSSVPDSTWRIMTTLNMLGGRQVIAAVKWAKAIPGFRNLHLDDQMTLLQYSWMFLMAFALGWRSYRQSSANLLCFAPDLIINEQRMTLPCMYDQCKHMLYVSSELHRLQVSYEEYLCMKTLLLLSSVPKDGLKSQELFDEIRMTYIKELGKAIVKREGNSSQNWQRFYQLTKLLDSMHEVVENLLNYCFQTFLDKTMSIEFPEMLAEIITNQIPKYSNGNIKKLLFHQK
Protocol: The cells were incubated at 37° C. in an atmosphere with 5% CO2 and after 5 hours the same volume of 20% FBS/DMEM was added.

Male Sprague-Dawley rats = assay: Croton oil induced ear edema in male Sprague-Dawley rats; format: in vivo; details: applied topically once, n=8
Protocol: Test and reference substances, as well as vehicle (acetone), were administered topically to the inner and the outer surface of the right ear of each animal with an automatic pipette, in a volume of 60 μL/ear (30 μL/surface), thirty minutes before the croton oil challenge. Test substances were administered in the doses of 2 or 5 mg/ear/60 μL of acetone. Dexamethasone was administered in the dose of 1 mg/ear/60 μL of acetone. Thirty minutes later, 20% croton oil emulsion in acetone was applied topically to the inner and the outer surface of the right ear of each animal with an automatic pipette, in a volume of 60 μL/ear (30 μL/surface). Five hours after the challenge, animals were euthanized by asphyxiation in 100% CO2 atmosphere. For assessing the auricular edema, 8 mm discs were cut out of left and right auricular pinna and weighed. The degree of edema was calculated by subtracting the weight of 8 mm disc of the untreated ear from that of the treated contralateral ear.

Male Balb/cJ mice = assay: Lung neutrophilia induced by bacterial lipopolysaccharide; format: in vivo; details: 24 hours after LPS
Protocol: Male Balb/cJ mice (Iffa Credo, Lyon, France) weighing 25 g were randomly grouped in three groups: test, positive and negative control (10 animals per each group). Vehicle, beclomethasone dipropionate or test substance were applied intranasally (i.n.) to Balb/cJ mice. Thirty minutes later, 60 μl of bacterial lipopolysaccharide (LPS), dissolved in PBS at the concentration of 167 μg/ml, was given i.n. to all groups except the negative control group, which received the same volume of PBS. Animals were sacrificed after 24 hours and bronchoalveolar lavage fluid (BALF) collected for determination of neutrophils and […] and TNF-α concentration. Cytokines were measured using sandwich ELISA (R&D Systems). Statistical analysis was performed using GraphPad prism software, one-way ANOVA Turkey Kramer Multiple comparison test.

[4] = 4 mg/kg i.n., vs positive control

thymus weight (Sprague-Dawley rats; 2 mg/sponge): significantly decreased | thymus weight (Sprague-Dawley rats; 10 mg/sponge): significantly decreased | plasma corticosterone concentration (Sprague-Dawley rats; 10 mg/sponge, vs vehicle control): significantly decreased
SMILES: C[C@H]1C[C@H]2[C@@H]3CCC4=CC(=O)C=C[C@]4(C)[C@@]3(Cl)[C@@H](O)C[C@]2(C)[C@@]1(O)C(=O)CO [beclomethasone]
plasma corticosterone levels (Male Balb/C mice; 1 mg/kg intranasally, mice): significantly suppressed

SMILES: CC[C@H]1OC(=O)[C@H](C)[C@@H](O)[C@H](C)[C@@H](O)[C@](C)(O)C[C@@H](C)CN(CCCNCCC(=O)O[C@]2(C(=O)OC)[C@H](C)CC3C4C[C@H](F)C5=CC(=O)C=C[C@]5(C)[C@@]4(F)[C@@H](O)C[C@@]32C)[C@H](C)[C@@H](O)[C@]1(C)O (stereo partly drawn) [Compound 10]
IC50 [1]: 41.7 nM | inhibition of T-cell hybridoma 13 proliferation [1]: exhibit inhibition | inhibition of the production of cytokines [2]: inhibits the production of cytokines | affinity for the glucocorticoid receptor (displacement of radioactive dexamethasone) [3]: have affinity for the glucocorticoid receptor | reduction of ear edema (Male Sprague-Dawley rats; 2 mg/ear): 51.58% | reduction of ear edema (Male Sprague-Dawley rats; 5 mg/ear): 85.53% | number of eosinophils in the lung rinse with respect to positive control (Male Balb/C mice; t-test, p<0.05): statistically significantly reduced | granulation tissue formation (Sprague-Dawley rats; 10 mg/sponge, vs non-treated and vehicle sponges): significantly reduced

SMILES: CC[C@H]1OC(=O)[C@H](C)[C@@H](O)[C@H](C)[C@@H](O)[C@](C)(O)C[C@@H](C)CN(CCCNCCC(=O)O[C@]2(C(=O)OC)[C@H](C)CC3C4C[C@H](F)C5=CC(=O)C=C[C@]5(C)[C@@]4(F)[C@@H](O)C[C@@]32C)[C@H](C)[C@@H](O)[C@]1(C)O (stereo partly drawn) [Compound 10 phosphate salt]
concentration of IL-6 in BALF (Male Balb/cJ mice; [4]): statistically significantly decreased | concentration of TNF-α in BALF (Male Balb/cJ mice; [4]): statistically significantly decreased | neutrophils in BALF (Male Balb/cJ mice; [4]): statistically significantly decreased

SMILES: CC[C@H]1OC(=O)[C@H](C)[C@@H](O)[C@H](C)[C@@H](O)[C@](C)(O)C[C@@H](C)CN(CCCCCCNCCC(=O)O[C@]2(C(=O)OC)[C@H](C)CC3C4C[C@H](F)C5=CC(=O)C=C[C@]5(C)[C@@]4(F)[C@@H](O)C[C@@]32C)[C@H](C)[C@@H](O)[C@]1(C)O (stereo partly drawn) [Compound 18]
IC50 [1]: 474 nM

SMILES: CC[C@H]1OC(=O)[C@H](C)[C@@H](O)[C@H](C)[C@@H](O)[C@](C)(O)C[C@@H](C)CN(CCCNCCC(=O)O[C@]2(C(=O)OC)[C@H](C)CC3C4C[C@H](F)C5=CC(=O)C=C[C@]5(C)C4[C@@H](O)C[C@@]32C)[C@H](C)[C@@H](O)[C@]1(C)O (stereo partly drawn) [Compound 9]
IC50 [1]: 303 nM | inhibition of T-cell hybridoma 13 proliferation [1]: exhibit inhibition

SMILES: C[C@@H]1C[C@H]2[C@@H]3CCC4=CC(=O)C=C[C@]4(C)[C@@]3(F)[C@@H](O)C[C@]2(C)[C@@]1(O)C(=O)CO [Dexamethasone, reference compound]
reduction of ear edema (Male Sprague-Dawley rats; 1 mg/ear): 85.77%

SMILES: CC[C@H]1OC(=O)[C@H](C)[C@@H](O)[C@H](C)[C@@H](O)[C@](C)(O)C[C@@H](C)CN(CCCNCCC(=O)O[C@]2(C(=O)OC)[C@H](C)CC3C4CCC5=CC(=O)C=C[C@]5(C)[C@@]4(F)[C@@H](O)C[C@@]32C)[C@H](C)[C@@H](O)[C@]1(C)O (stereo partly drawn) [Compound 7]
IC50 [1]: 464 nM | inhibition of T-cell hybridoma 13 proliferation [1]: exhibit inhibition | affinity for the glucocorticoid receptor (displacement of radioactive dexamethasone) [3]: have affinity for the glucocorticoid receptor

SMILES: CCOC(=O)[C@@]1(OC(=O)CCNCCCN2C[C@H](C)C[C@@](C)(O)[C@H](O)[C@@H](C)[C@H](O)[C@@H](C)C(=O)O[C@H](CC)[C@@](C)(O)[C@H](O)[C@H]2C)[C@H](C)CC2C3C[C@H](F)C4=CC(=O)C=C[C@]4(C)[C@@]3(F)[C@@H](O)C[C@@]21C (stereo partly drawn) [Compound 16]
IC50 [1]: 112 nM

SMILES: CCC(=O)OCC(=O)[C@@]1(OC(=O)CC)[C@@H](C)C[C@H]2[C@@H]3CCC4=CC(=O)C=C[C@]4(C)[C@@]3(Cl)[C@@H](O)C[C@@]21C [Beclometbasone dipropionate, beclomethasone dipropionate, reference compound]
concentration of IL-6 in BALF (Male Balb/cJ mice; 2 mg/kg i.n.): non-significantly decreased | concentration of TNF-α in BALF (Male Balb/cJ mice; 2 mg/kg i.n.): non-significantly decreased | neutrophils in BALF (Male Balb/cJ mice; 2 mg/kg i.n.): non-significantly decreased

SMILES: CC[C@H]1OC(=O)[C@H](C)[C@@H](O)[C@H](C)[C@@H](O)[C@](C)(O)C[C@@H](C)CN(CCCNC(=O)CCCCCCCCCCCNCCC(=O)O[C@]2(C(=O)OC)[C@H](C)CC3C4C[C@H](F)C5=CC(=O)C=C[C@]5(C)[C@@]4(F)[C@@H](O)C[C@@]32C)[C@H](C)[C@@H](O)[C@]1(C)O (stereo partly drawn) [Compound 14]
IC50 [1]: 455 nM

SMILES: CC[C@H]1OC(=O)[C@H](C)[C@@H](O)[C@H](C)[C@@H](O)[C@](C)(O)C[C@@H](C)CN(CCCCNCCC(=O)O[C@]2(C(=O)OC)[C@H](C)CC3C4C[C@H](F)C5=CC(=O)C=C[C@]5(C)[C@@]4(F)[C@@H](O)C[C@@]32C)[C@H](C)[C@@H](O)[C@]1(C)O (stereo partly drawn) [Compound 17]
IC50 [1]: 41.6 nM | reduction of ear edema (Male Sprague-Dawley rats; 5 mg/ear): 76.59%

SMILES: CC[C@H]1OC(=O)[C@H](C)[C@@H](O)[C@H](C)[C@@H](O)[C@](C)(O)C[C@@H](C)CN(CCCNCCC(=O)O[C@]2(C(=O)OC)CCC3C4C[C@H](C)C5=CC(=O)C=C[C@]5(C)C4[C@@H](O)C[C@@]32C)[C@H](C)[C@@H](O)[C@]1(C)O (stereo partly drawn) [Compound 13]
IC50 [1]: 287 nM
